Measurements from patent US20040138237A1, “Novel injectable depot formulations” (Pfizer Inc, priority 2002, published 2004).

Assay: Solubilization of ziprasidone mesylate in concentrated aqueous SBECD solution (concentration, HPLC potency)
Assay type: physicochemical
Protocol: This particular example employs a high concentration of SBECD to form an aqueous solution of ziprasidone at about 80 mgA/ml with about 56% SBECD. To facilitate drug dissolution, a pre-weighed amount of SBECD (gram weight SBECD equivalent to ml of depot formulation being prepared) was dissolved in water by heating in a water bath at 50° C. Ziprasidone mesylate was added in about 50 mg increments while heat was supplied to maintain the system at 50-60° C. A total of 572.99 mg Ziprasidone mesylate was added to 3 ml of 100% SBECD solution resulting in formation of 140 mgA/ml (191 mg/ml) clear viscous solution. The above solution was cooled to room temperature, and the solution remained clear for 2 weeks. Due to volume expansion, the final concentration of ziprasidone was about 80 mgA/ml with 56% cyclodextrin.
The stock solution was prepared using the same method as described above, however due to the higher solution volume (20 ml), the dissolution time was much longer (over 4 hours) even though micronized ziprasidone mesylate was used. During compounding, significant volume expansion was noted. To correct for the volume expansion, the specific gravity of the solution was determined to be 1.188 gm/ml. The volume of water used to prepare this solution was 20 ml, however, the final volume of the solution was 36.6 ml, and the weight of the solution was 43.5 gm. Therefore, taking into consideration 83% volume expansion, the corrected concentrations of drug and SBECD in this solution are 77 mgA/ml and 55% w/v, respectively.
The extent of solubilization was further confirmed by preparation of 82 mgA/ml ziprasidone solution with 59% SBECD using the same method. Viscosity was greater than 160 cps.

corrected concentration of drug in solution (55% w/v SBECD, corrected for 83% volume expansion, scaled-up stock solution): 77 mgA/ml
potency of solution by HPLC potency method (scaled-up stock solution, 55% w/v SBECD): 75 mgA/ml
final concentration of ziprasidone in clear aqueous solution (with 56% cyclodextrin (SBECD), after volume expansion): about 80 mgA/ml
Structure (SMILES): O=C1Cc2cc(CCN3CCN(c4nsc5ccccc45)CC3)c(Cl)cc2N1 [ziprasidone]
